Read-outs that look alike come from different tables or passages of the source.
Columns and labels:
[1] = Conversion rate (CR) assay with fluorescamine; type: physicochemical; parameters: key to CR: % = 100−100×filtrate/original fluorescence intensity; conditions: conversion rate, fluorescamine assay; for CR / %: Fig. S7 panel B
Method: For ATR FT–IR spectroscopy measurements, 200 µL of the respective 1 mg/mL PNF solution was lyophilized and the resulting powder used for measurement. All spectra were recorded on a Bruker Tensor 27 spectrometer with a diamond crystal as ATR element (PIKE MiracleTM, spectral resolution 2 cm^-1). Every sample was measured with 64 scans. Data were analyzed with OriginLab software and calculation of β–sheet content was conducted according to a previous report. TEM. For TEM measurements 5 µL of PNF fibrils (1 mg/mL) were placed on copper grids coated with carbon and formvar layer (300 mesh, Plano GmbH). After 10 min incubation time, the grids were staining with 4% uranyl acetate solution for 2.5 min and washed with water. Measurements were performed on a Jeol 1400 electron microscope with 120 kV acceleration voltage. CR Assay. For the determination of the amount of peptide monomer converting into nanostructures the amine reactive dye fluorescamine was used analogous to a previous reported protocol. Briefly, 100 µL of the preformed PNF solution was centrifuged in a Vivaspin 500 tube (3 kDa MWCO) to separate fibers from free peptide monomer (16200 x g, 4 °C, 45 min). The filtrate and 100 μL of the non-filtered PNF sample were lyophilized and dissolved in 30 μL DMSO. 10 μL of the filtrate and non-filtered DMSO samples were submitted in a black UV Star® 384 microliter well–plates (Greiner bio–one) and 3 μL of the fluorescamine solution (10 mg/mL, DMSO) was added to measure the fluorescence enhancement. After 20 min of incubation at RT, fluorescence was recorded on an Infinite® M1000 PRO microplate reader (Tecan) at λem = 470 nm upon excitation at λex = 365 nm with 10 nm bandwidths and multiple reads per well (3×3). Measurements were repeated in triplicates and averaged with standard deviation. All values were calculated as n-fold fluorescence enhancement (DMSO only as a reference was set to 1). The conversion rate CR was defined according to the equation Eq. (3).3 CR=100−100×fluorescenceintensityfiltrate/fluorescenceintensityoriginal[%]

[2] = type: physicochemical; parameters: key to Fibril / Fibril Formation / TEM 2cat / Fibril: 1 = fibrils present; 0 non-fibrillar structures; conditions: for Fibril / Fibril Formation: 1 mg/mL, uranyl acetate stain, qualitative
[3] = type: physicochemical; conditions: for ThT Cat. / ThT-Fluorescence (categorical): ThT-active if fluorescence at least twice the control
Outline: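 Preformed peptide fibrils (1 mg/mL) mixed with 50 µM ThT in PBS, 15 min at RT, fluorescence ex 440/em 488 nm versus PBS blank, triplicates. Zeta potential: peptides at 1 mg/mL in PBS pH 7.4, aged 1 d at RT, diluted in 1 mM KCl, Smoluchowski from electrophoretic mobility.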

[4] = Fig S10 panel D, fibril category by TEM
[5] = TEM, 1 = fibrils present, 0 = non-fibrillar
[6] = TEM, 1 = fibrils present, 0 = non-fibrillar structures
[7] = category: fibrils present or non-fibrillar
[8] = ThT fluorescence category, 1 if Rel. ThT >2
[9] = FigS12 panel A, fibril category by TEM

| Substance | CR / % [1] | CR [1] | TEM 2cat [2, 4] | Fibril ([2]; Fig S10 panel E) | Fibril / Fibril Formation ([2]; TEM) | Fibril [2, 5] | Fibril [2, 6] | TEM 2cat [2, 7] | Tht category (> 2 to blank = +) ([3]; Fig S10 panel D) | ThT Cat. ([3]; Fig S10 panel E) | ThT Cat, ([3]; ThT category, 1 if Rel. ThT >2) | ThT Cat. [3, 8] | ThT Cat. / ThT-Fluorescence (categorical) [3] | TEM 2cat [2, 9] | Fibril ([2]; FigS12 panel B, TEM) | Tht category (> 2 to blank = +) ([3]; FigS12 panel A) | ThT Cat, ([3]; FigS12 panel B) | ThT Cat. ([3]; ThT category, 1 if Rel. ThT >2) | TEM 2cat ([2]; Fig S10 panel D) |
| --- | --- | --- | --- | --- | --- | --- | --- | --- | --- | --- | --- | --- | --- | --- | --- | --- | --- | --- | --- |
| CEFEFQFNMWQ | 98.6% | 98.63 | 1 | 1 | 1 | 1 | 1 | 1 | 1 (ThT. Cat is 1, if Rel. ThT >2) | 1 (ThT. Cat is 1, if Rel. ThT >2) | 1 (ThT. Cat is 1, if Rel. ThT >2) | 1 (ThT. Cat is 1, if Rel. ThT >2) | 1 (ThT. Cat is 1, if Rel. ThT >2) |  |  |  |  |  |  |
| CEIEIQINM | 43% | 43 | 1 | 1 | 1 | 1 | 1 |  | 1 (ThT. Cat is 1, if Rel. ThT >2) | 1 (ThT. Cat is 1, if Rel. ThT >2) | 1 (ThT. Cat is 1, if Rel. ThT >2) | 1 (ThT. Cat is 1, if Rel. ThT >2) | 1 (ThT. Cat is 1, if Rel. ThT >2) | 1 | 1 | 1 (ThT. Cat is 1, if Rel. ThT >2) | 1 (ThT. Cat is 1, if Rel. ThT >2) |  |  |
| CEIEIQINMWQ | 67% | 66.95 | 1 | 1 | 1 | 1 | 1 | 1 | 1 (ThT. Cat is 1, if Rel. ThT >2) | 1 (ThT. Cat is 1, if Rel. ThT >2) | 1 (ThT. Cat is 1, if Rel. ThT >2) | 1 (ThT. Cat is 1, if Rel. ThT >2) | 1 (ThT. Cat is 1, if Rel. ThT >2) |  |  |  |  |  |  |
| KIKIQIW |  |  | 1 |  | 1 | 1 | 1 | 1 | 1 (ThT. Cat is 1, if Rel. ThT >2) |  | 1 (ThT. Cat is 1, if Rel. ThT >2) |  | 1 (ThT. Cat is 1, if Rel. ThT >2) |  |  |  |  | 1 (ThT. Cat is 1, if Rel. ThT >2) |  |
| KLKLKLQL |  |  | 1 |  | 1 | 1 | 1 |  | 0 (ThT-inactive (N-Fold <2)) |  | 0 (ThT-inactive (N-Fold <2)) | 0 (ThT-inactive (N-Fold <2)) | 0 (ThT-inactive (N-Fold <2)) | 1 | 1 | 0 (ThT-inactive (N-Fold <2)) | 0 (ThT-inactive (N-Fold <2)) |  |  |
| KLKLQLL |  |  | 1 |  | 1 | 1 | 1 |  | 0 (ThT-inactive (N-Fold <2)) |  | 0 (ThT-inactive (N-Fold <2)) | 0 (ThT-inactive (N-Fold <2)) | 0 (ThT-inactive (N-Fold <2)) | 1 | 1 | 0 (ThT-inactive (N-Fold <2)) | 0 (ThT-inactive (N-Fold <2)) |  |  |
| KVKVQVV |  |  | 0 |  | 0 | 0 | 0 |  | 0 (ThT-inactive (N-Fold <2)) |  | 0 (ThT-inactive (N-Fold <2)) | 0 (ThT-inactive (N-Fold <2)) | 0 (ThT-inactive (N-Fold <2)) | 0 | 0 | 0 (ThT-inactive (N-Fold <2)) | 0 (ThT-inactive (N-Fold <2)) |  |  |
| KVKVQVVV |  |  | 1 |  | 1 | 1 | 1 |  | 0 (ThT-inactive (N-Fold <2)) |  | 0 (ThT-inactive (N-Fold <2)) | 0 (ThT-inactive (N-Fold <2)) | 0 (ThT-inactive (N-Fold <2)) | 1 | 1 | 0 (ThT-inactive (N-Fold <2)) | 0 (ThT-inactive (N-Fold <2)) |  |  |
| MKIKIQINM |  |  | 1 |  | 1 | 1 | 1 | 1 | 0 (ThT-inactive (N-Fold <2)) |  | 0 (ThT-inactive (N-Fold <2)) | 0 (ThT-inactive (N-Fold <2)) | 0 (ThT-inactive (N-Fold <2)) |  |  |  |  |  |  |
| MKIKIQINMWQ |  |  | 1 |  | 1 | 1 | 1 | 1 | 1 (ThT. Cat is 1, if Rel. ThT >2) |  | 1 (ThT. Cat is 1, if Rel. ThT >2) | 1 (ThT. Cat is 1, if Rel. ThT >2) | 1 (ThT. Cat is 1, if Rel. ThT >2) |  |  |  |  |  |  |
| QCKFKQFF |  |  |  |  | 1 | 1 | 1 |  | 1 (ThT. Cat is 1, if Rel. ThT >2) |  | 1 (ThT. Cat is 1, if Rel. ThT >2) |  | 1 (ThT. Cat is 1, if Rel. ThT >2) | 1 | 1 | 1 (ThT. Cat is 1, if Rel. ThT >2) | 1 (ThT. Cat is 1, if Rel. ThT >2) | 1 (ThT. Cat is 1, if Rel. ThT >2) | 1 |
| RGDCKIKIQINM |  |  | 1 |  | 1 | 1 | 1 | 1 | 0 (ThT-inactive (N-Fold <2)) |  | 0 (ThT-inactive (N-Fold <2)) | 0 (ThT-inactive (N-Fold <2)) | 0 (ThT-inactive (N-Fold <2)) |  |  |  |  |  |  |

— publication PMC10447463, “Data-mining unveils structure–property–activity correlation of viral infectivity enhancing self-assembling peptides” (Nature Communications, 2023)
